The values that follow come from PMC2826131 (Journal of the American Chemical Society, 2010).

Each structure is given as a SMILES string.

One assay concerns the target ferrous nNOS heme domain (Rattus norvegicus, UniProt P29476). In words: Ferrous difference spectrometry. Type of assay: binding. The following applies: type of difference spectrum toward ferrous (dithionite-reduced) nNOS heme domain.
For the next assay, the target named is ferric nNOS heme domain (Rattus norvegicus, UniProt P29476). In words: Ferric difference spectrometry. Format: binding. The note with it: type of difference spectrum toward ferric nNOS heme domain.
In another assay the target is rat nNOS (Rattus norvegicus, UniProt P29476). In words: NOS hemoglobin capture assay, Ki from IC50. Type of assay: biochemical. The following applies: 10 μM L-arginine, calculated from IC50, mean ± SD of 2-3 experiments.
rat nNOS, sequence (P29476 whole entry): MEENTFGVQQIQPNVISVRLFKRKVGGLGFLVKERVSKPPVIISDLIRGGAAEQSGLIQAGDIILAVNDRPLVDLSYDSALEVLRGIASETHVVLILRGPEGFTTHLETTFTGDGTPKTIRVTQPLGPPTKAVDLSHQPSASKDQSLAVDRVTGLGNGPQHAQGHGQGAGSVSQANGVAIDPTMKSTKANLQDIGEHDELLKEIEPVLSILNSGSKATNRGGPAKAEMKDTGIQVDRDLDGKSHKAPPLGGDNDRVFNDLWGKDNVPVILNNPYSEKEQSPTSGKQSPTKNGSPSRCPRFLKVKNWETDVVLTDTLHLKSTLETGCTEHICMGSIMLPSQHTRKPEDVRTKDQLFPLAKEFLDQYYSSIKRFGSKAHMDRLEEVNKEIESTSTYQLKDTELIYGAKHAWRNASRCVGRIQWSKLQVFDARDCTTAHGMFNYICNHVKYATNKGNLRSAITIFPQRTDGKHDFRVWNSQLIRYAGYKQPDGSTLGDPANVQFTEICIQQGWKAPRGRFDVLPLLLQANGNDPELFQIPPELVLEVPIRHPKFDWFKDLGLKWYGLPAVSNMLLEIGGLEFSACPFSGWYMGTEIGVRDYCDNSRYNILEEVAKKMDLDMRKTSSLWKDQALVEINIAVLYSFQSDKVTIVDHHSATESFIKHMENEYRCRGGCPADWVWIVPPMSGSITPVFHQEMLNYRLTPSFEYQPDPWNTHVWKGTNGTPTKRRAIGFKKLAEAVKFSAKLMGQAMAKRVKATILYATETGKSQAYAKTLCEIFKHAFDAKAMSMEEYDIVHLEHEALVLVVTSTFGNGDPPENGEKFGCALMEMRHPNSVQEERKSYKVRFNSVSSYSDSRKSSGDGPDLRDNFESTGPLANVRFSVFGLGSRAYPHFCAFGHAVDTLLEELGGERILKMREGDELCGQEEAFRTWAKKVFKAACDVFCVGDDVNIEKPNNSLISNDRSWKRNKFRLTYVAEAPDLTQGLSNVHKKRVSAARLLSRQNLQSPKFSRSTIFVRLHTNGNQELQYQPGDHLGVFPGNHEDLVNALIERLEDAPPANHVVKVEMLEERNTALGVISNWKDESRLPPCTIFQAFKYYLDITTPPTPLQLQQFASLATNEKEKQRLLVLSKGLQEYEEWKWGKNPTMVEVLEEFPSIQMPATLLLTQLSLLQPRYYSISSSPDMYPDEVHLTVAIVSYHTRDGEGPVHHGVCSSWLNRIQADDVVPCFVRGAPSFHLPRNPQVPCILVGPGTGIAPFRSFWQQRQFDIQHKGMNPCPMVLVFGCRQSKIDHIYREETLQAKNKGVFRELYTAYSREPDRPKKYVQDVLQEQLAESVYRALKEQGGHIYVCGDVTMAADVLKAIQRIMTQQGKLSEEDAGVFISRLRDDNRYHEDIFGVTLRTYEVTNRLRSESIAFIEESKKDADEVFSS

ferrous nNOS heme domain, sequence (P29476 297-718 limits assumed): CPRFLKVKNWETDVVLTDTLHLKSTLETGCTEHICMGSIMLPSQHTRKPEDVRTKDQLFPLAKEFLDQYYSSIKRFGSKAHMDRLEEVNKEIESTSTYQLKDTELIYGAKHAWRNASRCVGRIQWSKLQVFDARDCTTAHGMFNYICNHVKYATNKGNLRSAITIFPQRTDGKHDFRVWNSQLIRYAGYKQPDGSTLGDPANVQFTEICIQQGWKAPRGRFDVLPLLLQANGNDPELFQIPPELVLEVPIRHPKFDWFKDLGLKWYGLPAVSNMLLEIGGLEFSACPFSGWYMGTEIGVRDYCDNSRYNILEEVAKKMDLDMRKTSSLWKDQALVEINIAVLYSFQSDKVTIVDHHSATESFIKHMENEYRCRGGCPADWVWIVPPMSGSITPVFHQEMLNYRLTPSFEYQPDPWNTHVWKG
ferric nNOS heme domain, sequence (P29476 297-718 limits assumed): as above

In the case of `NC(=NCCC[C@H](N)C(=O)O)N[N+](=O)[O-]` [L-Nitroarginine], on ferrous nNOS heme domain, the “Fe^2+ type” value is listed as “I”. The “Fe^3+ type” value on ferric nNOS heme domain is on record as “I”.
As for `c1c[nH]cn1` [Imidazole], at ferrous nNOS heme domain, the “Fe^2+ type” value was “I”. Also, the Ki – broadly, a measure of affinity in units of concentration, obtained from inhibition or displacement – at rat nNOS was 29.7 ± 0.8 µM.
